“And” between values parts separate entries of the source, which are not always exact repeats. Identical values can stand only once. Like-named read-outs stand apart in the source and are kept apart here. Blank lines part the entries; values can stand above or below the molecule they belong to.
Experiments:
[1] = type: in vivo, human; conditions: for plasma ammonia: male
Description: (§1) Plasma ammonia levels were obtained at Stanford University Medical Center, which followed a strict protocol of immediately placing the blood sample on ice, and then analyzing the sample within 15 minutes. Samples not placed on ice, or analyzed after a longer delay yield artificially elevated plasma ammonia levels due to release of ammonia from erythrocytes and deamination of plasma amino acids (52, 53).
A person with gastric adenocarcinoma underwent subtotal gastrectomy and Roux-en-Y gastrojejunostomy, followed by two cycles of adjuvant carboplatin and capecitabine (1000 mg/m^2 twice a day for 14 days), and then 50 Gy of radiation therapy to the tumor bed with concurrent capecitabine (1000 mg/m^2 twice a day). During each course of capecitabine, they experienced extreme lethargy, without mucositis, diarrhea or hand-foot syndrome.
On the third cycle of carboplatin and capecitabine, self-administered folate 1 mg/d hoping to prevent lethargy. From days 5 to 14 of capecitabine, they became increasingly confused, and then combative and ataxic. Two days after the last capecitabine dose, they were taken to local emergency room for delirium and found to have a normal CT scan of the brain.
After discontinuation of lactulose on discharge from the hospital, plasma ammonia gradually rose and then returned to normal over two months (FIG. 2A). Four months after discharge, mild liver steatosis was noted on CT scan for the first time.
A person with newly diagnosed squamous cell carcinoma of the left tonsil and base of tongue began treatment with docetaxel and cisplatin, followed by a planned 5-day infusion of 5-FU (750 mg/m^2). Past medical history included manic depression treated with valproic acid.
(§2) After 1 day, the infusion 5-FU was held because of diarrhea from C. difficile, which was treated with metronidazole. Two days later, the infusion was resumed. On the third infusion day, the patient developed slurred speech and gait ataxia. On the fifth infusion day, they became delirious and then comatose. MRI and CT scan of the brain, and lumbar puncture were normal. Valproic acid trough levels ([…]) were within therapeutic range, which is sufficient to inhibit N-acetylglutamate synthase (FIG. 1A) and disrupt the urea cycle (11, 12). Despite multiple episodes of diarrhea and a delay of 10 hours following discontinuation of infusion 5-FU, plasma ammonia was elevated at 37 μmol/L. The next day, the patient was alert, and plasma ammonia was 16 μmol/L. The tumor had decreased markedly in size, no longer preventing them from turning their head.
A person with a well-differentiated neuroendocrine tumor of unknown primary began treatment with capecitabine (days 1-14) and temozolomide (days 10-14) after progression of massive liver metastases. […]

[2] = high dose continuous infusion 5-FU; sixteen of 280 patients; cited from earlier work
[3] = Valproic acid trough levels in Patient 2; type: in vivo, human; conditions: within therapeutic range
Description: as §2

[4] = Prospective measurement of plasma ammonia levels in patients treated with capecitabine; type: in vivo, human
Description: Prospective Measurement of Plasma Ammonia Levels in Patients Treated with Capecitabine
Patients donated whole blood for analysis after providing consent according to a protocol approved by the Stanford University Administrative Panel for the Protection of Human Subjects.
as §1, with “53). […]” for “53).”
Mid-cycle levels were measured after patients had taken capecitabine for 7 to 14 days. […]
To prospectively measure plasma ammonia after capecitabine, we prospectively studied 29 cancer patients (Table 3). […] To estimate baseline plasma ammonia levels, we measured 2 or more levels before the first capecitabine dose or at least 7 days after the previous capecitabine dose.
We monitored changes in cognitive function between baseline and mid-cycle time points with two instruments: a telephone-administered mini-mental status examination, and a patient self-administered questionnaire. […]

SMILES: OC[C@H]1O[C@@H](O[C@@H]2[C@@H](CO)OC(O)(CO)[C@H]2O)[C@H](O)[C@@H](O)[C@H]1O (mixture of isomers) [lactulose]
- plasma ammonia with lactulose treatment ([1]; Patient 1 (index case), declined from 158 μmol/L, symptoms resolved): 29 µmol/L

- plasma ammonia ([1]; human, in vivo): 16 µmol/L
SMILES: O=c1[nH]cc(F)c(=O)[nH]1 [5-FU, 5-fluorouracil]
- patients who suffered encephalopathy with hyperammonemia [2]: 5.7%

- Valproic acid trough levels [3]: 45 µg/mL and 68 µg/mL
SMILES: CCCC(CCC)C(=O)O [Valproic acid, valproic acid]

- patients with mid-cycle plasma ammonia levels increased above baseline levels ([4]; 29 cancer patients, mid-cycle after 7 to 14 days of capecitabine, by more than 3 or 4 standard deviations (p<0.01 or p<0.001)): 5 of the 29
- patients with clinically significant symptoms among those with increased mid-cycle ammonia levels ([4]; of the 5 patients with increased mid-cycle ammonia, cognitive dysfunction, malaise, fatigue, unsteady gait): 2 of the 5
- plasma ammonia level ([1]; female, human, in vivo, 7 days after the last capecitabine dose): 158 µmol/L
- plasma ammonia ([1]; human, in vivo, 7 days after discontinuing capecitabine): 54 µmol/L
SMILES: CCCCCOC(=O)Nc1nc(=O)n(C2OC(C)C(O)C2O)cc1F (centres unmarked) [capecitabine, pentyl[1-(3,4-dihydroxy-5-methyltetrahydrofuran-2-yl)-5-fluoro-2-oxo-1H-pyrimidin-4-yl]carbamate]

— patent US20160002733A1, “ASSESSING RISK FOR ENCEPHALOPATHY INDUCED BY 5-FLUOROURACIL OR CAPECITABINE” (THE BOARD OF TRUSTEES OF THE LELAND STANFORD JUNIOR …, priority 2013, published 2016)
